Measurements from ChEMBL document CHEMBL3638614, “Diaza-spiro[5.5]undecanes” (2013).

How the values were obtained:
[1] = molecular target: T1, Orexin/Hypocretin receptor type 1 (Homo sapiens, UniProt O43613); assay: (§1) Radioligand Binding Assay : Radioligand binding assay using orexin receptor.
T1 sequence (O43613 whole entry): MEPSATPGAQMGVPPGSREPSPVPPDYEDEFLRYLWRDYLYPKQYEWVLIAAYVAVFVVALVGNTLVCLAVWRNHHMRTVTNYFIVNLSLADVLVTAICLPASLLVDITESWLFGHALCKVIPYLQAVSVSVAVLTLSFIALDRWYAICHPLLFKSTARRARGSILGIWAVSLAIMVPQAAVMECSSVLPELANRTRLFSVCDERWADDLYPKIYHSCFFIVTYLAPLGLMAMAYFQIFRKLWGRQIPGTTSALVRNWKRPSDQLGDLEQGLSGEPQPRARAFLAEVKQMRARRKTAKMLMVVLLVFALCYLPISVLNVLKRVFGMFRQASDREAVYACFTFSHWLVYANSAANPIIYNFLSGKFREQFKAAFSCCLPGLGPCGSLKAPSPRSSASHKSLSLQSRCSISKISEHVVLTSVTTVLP

[2] = molecular target: T2, Orexin receptor type 2 (Homo sapiens, UniProt O43614); assay: as §1
T2 sequence (O43614 whole entry): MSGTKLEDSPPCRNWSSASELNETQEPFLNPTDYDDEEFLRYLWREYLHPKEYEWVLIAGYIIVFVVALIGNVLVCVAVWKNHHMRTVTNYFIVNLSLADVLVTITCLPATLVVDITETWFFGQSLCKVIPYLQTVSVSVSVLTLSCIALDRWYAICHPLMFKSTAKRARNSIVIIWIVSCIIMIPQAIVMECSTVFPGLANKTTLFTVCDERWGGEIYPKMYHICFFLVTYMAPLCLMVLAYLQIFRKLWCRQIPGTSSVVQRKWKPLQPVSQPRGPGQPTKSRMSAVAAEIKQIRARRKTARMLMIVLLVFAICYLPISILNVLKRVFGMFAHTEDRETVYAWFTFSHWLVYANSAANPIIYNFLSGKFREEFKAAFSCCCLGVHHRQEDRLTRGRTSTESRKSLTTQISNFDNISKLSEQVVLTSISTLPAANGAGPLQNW

[3] = molecular target: T1, Orexin/Hypocretin receptor type 1; assay: (§2) FLIPR Assay : FLIPR assay using orexin receptor.
[4] = molecular target: T2, Orexin receptor type 2; assay: as §2

Kd [1] [nM] | Kd [2] [nM] | Ki [3] [nM] | Ki [4] [nM] | SMILES
> 10000 | 755 | 2460 | 126 | O=C1N(Cc2cccc3ccccc23)CCCC12CCN(c1nc3ccccc3[nH]1)CC2
> 10000 | > 10000 |  |  | Cn1c(N2CCC3(CCCN(Cc4ccccc4)C3=O)CC2)nc2ccccc21
 |  | 1540 | 739 | O=C1N(Cc2cc(Cl)cc3c2OCOC3)CCCC12CCN(c1cnc3ccccc3n1)CC2
